From ChEMBL document CHEMBL1142336, “Overcoming undesirable HERG potency of chemokine receptor antagonists using baseline lipophilicity relationships” (J Med Chem, 2008)
pIC50: −log10 of the molar value.

Key:
[1] = Lipophilicity, log D at pH 7.4; conditions: buffer
[2] = biological target: C-C chemokine receptor type 8 (Homo sapiens, UniProt P51685); test: Antagonist activity at CCR8 receptor; assay type: functional
[3] = biological target: Voltage-gated inwardly rectifying potassium channel KCNH2 (Homo sapiens, UniProt Q12809); test: Displacement of [3H]dofetilide from human recombinant ERG potassium channel expressed in HEK293 cells by patch clamp method
Sequence of Voltage-gated inwardly rectifying potassium channel KCNH2 (Q12809 whole entry): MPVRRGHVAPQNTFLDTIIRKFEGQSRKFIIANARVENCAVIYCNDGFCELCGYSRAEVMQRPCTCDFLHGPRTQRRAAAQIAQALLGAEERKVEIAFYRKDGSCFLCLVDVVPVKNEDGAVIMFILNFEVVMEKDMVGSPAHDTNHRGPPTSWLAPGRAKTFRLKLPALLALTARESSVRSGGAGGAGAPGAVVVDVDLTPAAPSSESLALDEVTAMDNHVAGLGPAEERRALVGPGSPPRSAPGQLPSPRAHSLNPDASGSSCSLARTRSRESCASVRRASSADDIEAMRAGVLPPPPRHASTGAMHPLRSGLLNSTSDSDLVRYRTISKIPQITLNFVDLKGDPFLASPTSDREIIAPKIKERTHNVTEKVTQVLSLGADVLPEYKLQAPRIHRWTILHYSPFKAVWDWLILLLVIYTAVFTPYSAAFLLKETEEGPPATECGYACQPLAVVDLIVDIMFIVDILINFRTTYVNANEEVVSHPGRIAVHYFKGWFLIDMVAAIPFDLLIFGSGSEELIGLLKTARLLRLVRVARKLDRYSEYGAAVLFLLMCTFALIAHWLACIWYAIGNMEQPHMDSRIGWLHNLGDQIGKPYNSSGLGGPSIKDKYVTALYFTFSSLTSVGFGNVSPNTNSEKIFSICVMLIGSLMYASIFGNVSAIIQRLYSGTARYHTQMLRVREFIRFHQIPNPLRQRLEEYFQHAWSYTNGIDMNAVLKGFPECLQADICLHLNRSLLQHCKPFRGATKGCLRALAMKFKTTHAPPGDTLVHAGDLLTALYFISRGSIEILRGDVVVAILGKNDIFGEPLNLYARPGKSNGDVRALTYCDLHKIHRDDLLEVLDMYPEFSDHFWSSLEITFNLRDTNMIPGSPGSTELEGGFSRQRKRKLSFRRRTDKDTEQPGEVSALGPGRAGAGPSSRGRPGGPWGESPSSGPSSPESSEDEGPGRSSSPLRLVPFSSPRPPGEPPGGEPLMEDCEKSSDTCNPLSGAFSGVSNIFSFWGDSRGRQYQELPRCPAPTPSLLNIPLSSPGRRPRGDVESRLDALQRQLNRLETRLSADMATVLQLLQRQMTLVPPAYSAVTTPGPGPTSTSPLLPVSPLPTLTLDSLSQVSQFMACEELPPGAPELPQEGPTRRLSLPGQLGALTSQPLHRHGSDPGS

Sequence of C-C chemokine receptor type 8 (P51685 whole entry): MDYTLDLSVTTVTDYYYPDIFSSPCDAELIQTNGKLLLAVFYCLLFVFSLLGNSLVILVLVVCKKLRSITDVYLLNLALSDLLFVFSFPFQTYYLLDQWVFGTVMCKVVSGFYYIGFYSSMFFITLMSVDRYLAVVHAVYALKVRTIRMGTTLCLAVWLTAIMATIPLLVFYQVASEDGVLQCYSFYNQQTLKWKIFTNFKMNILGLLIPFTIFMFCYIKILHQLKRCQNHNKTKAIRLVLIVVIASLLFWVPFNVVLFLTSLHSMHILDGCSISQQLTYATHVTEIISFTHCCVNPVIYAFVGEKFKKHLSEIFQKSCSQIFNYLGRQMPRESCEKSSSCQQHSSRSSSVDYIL

SMILES	logD [1]	pIC50 [2]	pIC50 [3]
O=C(c1ccc(Cl)cc1)N1CCC2(CCN(Cc3ccccc3Oc3ccccc3)CC2)CC1	3.5	–	–
COc1ccccc1Oc1ccccc1CN1CCC2(CC1)CCN(C(=O)c1cccc[n+]1[O-])CC2	0.5	7.10	5.72
COc1ccccc1Oc1ccccc1CN1CCC2(CC1)CCN(C(=O)c1cc[n+]([O-])cc1)CC2	0.5	6.94	–
COc1ccccc1Oc1ccccc1CN1CCC2(CC1)CCN(C(=O)c1ccncc1)CC2	1.8	7.92	–
O=C(c1ccncc1)N1CCC2(CCN(Cc3ccccc3Oc3ccccc3)CC2)CC1	–	7.48	–
COc1ccccc1Oc1cccc(CN2CCC3(CC2)CCN(C(=O)c2ccc(Cl)cc2)CC3)c1	3.5	7.92	–
O=C(c1cc[n+]([O-])cc1)N1CCC2(CCN(Cc3cccc(Oc4ccccc4)c3)CC2)CC1	1.2	6.78	–
O=C(c1ccncn1)N1CCC2(CCN(Cc3cccc(Oc4ccccc4)c3)CC2)CC1	2.4	7.56	–
O=C(c1ccc(O)cc1OC[C@@H](O)CN1CCC2(CC1)Cc1cc(Cl)ccc1O2)N1C[C@H](O)CO1	1.55	–	7.60
